Assays:
[1] = Detection of CO release using the myoglobin assay (conversion of deoxy-Mb to MbCO); assay type: physicochemical
Procedure: The release of CO from CORM-A1 (Na2[H3BCOO]) was assessed spectrophotometrically by measuring the conversion of deoxymyoglobin (deoxy-Mb) to carbonmonoxy myoglobin (MbCO) in a manner previously reported (refs. 3, 4, 5). A small aliquot of CORM-A1 (60 μM final concentration) was added to 1 ml deoxy-Mb (≈53 μM) in phosphate buffer and changes in the Mb spectra were recorded over time. The amount of MbCO formed was quantified by measuring the absorbance at 540 nm (extinction coefficient=[…]). In order to examine the effect of pH on the rate of CO liberation from CORM-A1, experiments were conducted using solutions of myoglobin in 0.04 M phosphate buffer prepared at different pHs (7.4, 7.0, 6.5 and 5.5). The amount of MbCO formed was plotted over time and the half-life of CORM-A1 at different pHs and temperatures was calculated from the fitted curves.
The conversion of deoxy-Mb to MbCO can be followed over time by measuring the changes in the absorption spectra of this protein. […] The Mb appears to be fully saturated 2 h after addition of CORM-A1 (see curve with filled diamonds in FIG. 1A). […] Specifically, from the fitted curves shown in FIG. 2A we can calculate that the half-lives of CORM-A1 at 37° C. are as follows: 21 min at pH=7.4; 7.1 min at pH=7.0; 3.3 min at pH=6.5; and 2.5 min at pH=5.5.

[2] = Detection of CO release using an amperometric CO sensor; assay type: physicochemical; conditions: 20 μM; for dissociation rate constant of CO / half-life: 37° C.
From the text: The release of CO from CORM-A1 was also detected using a prototype electrode purchased from World Precision Instrument (Stevenage, Herts, UK). This CO electrode is a membrane-covered amperometric sensor which has been designed on a basic operating principle similar to the nitric oxide (NO) sensor (ISO-NOP series, World Precision Instruments). The CO sensor can be connected to the ISO-NO Mark II meter for detection of the current signals providing that the poise potential is set to a different value (900 mV for CO as opposed to 860 mV for NO). In principle, CO diffuses through the gas permeable membrane and is then oxidized to CO2 on the working electrode. This oxidation creates a current whose magnitude can be related directly to the concentration of CO in solution. The CO sensor was used to generate standard curves and calculate the rates of CO release from CORM-A1 at different pHs and temperatures. The electrode was immersed into the solutions at different pHs and equilibrated for 30 min prior to addition of CORM-A1. For the experiments conducted at 37, 30, 25 and 20° C., the solutions were maintained at the desired temperature using a Grant W6 thermostat (Cambridge, England).
CORM-A1 was also tested for its ability to liberate CO using an amperometric electrode sensitive to CO. […] A standard curve generated at pH=5.5 using CORM-A1 in a range between 10 and 50 μM indicated a good linear correlation (R^2=0.998) between the concentrations used and the electrode response (FIG. 3B). Therefore, a concentration of 20 μM CORM-A1 was then used to calculate the rate of CO dissociation from CORM-A1 at different pHs and temperatures. […] Specifically, from the curves shown in FIG. 3D, we can calculate that the initial rate of CO release at pH=5.5 is 6.84 μM/min at 37° C., 3.83 μM/min at 30° C., 2.16 μM/min at 25° C. and 1.22 μM/min at 20° C. Thus, the spontaneous liberation of CO from CORM-A1 in aqueous solutions is both pH- and temperature-dependent.

[3] = cited from earlier work

Molecule: sodium boranocarbonate [CORM-A1]
- time until Mb is fully saturated with CO ([1]; 60 μM, 37° C., pH=7.4): 2 h
- mole of CO formed per mole of compound ([1]; pH=5.5, standard curve): one
- dissociation rate constant of CO ([2]; pH=4.0): 0.011 s⁻¹
- dissociation rate constant of CO ([2]; pH=5.5): 0.0058 s⁻¹
- half-life ([2]; pH=5.5): 1.96 min
- dissociation rate constant of CO ([2]; pH=7.4): 0.00055 s⁻¹
- half-life ([2]; pH=7.4): 21.06 min
- initial rate of CO release ([2]; pH=5.5, 20° C.): 1.22 µM/min
- initial rate of CO release ([2]; pH=5.5, 25° C.): 2.16 µM/min
- initial rate of CO release ([2]; pH=5.5, 30° C.): 3.83 µM/min
- initial rate of CO release ([2]; pH=5.5, 37° C.): 6.84 µM/min

Molecule: [C-]#[O+].[C-]#[O+].[C-]#[O+].[C-]#[O+].[C-]#[O+].[C-]#[O+].[C-]#[O+].[C-]#[O+].[C-]#[O+].[C-]#[O+].[Mn].[Mn] [CORM-1, manganese decacarbonyl]
- solubility [3]: soluble only in organic solvents

Molecule: [C-]#[O+].[C-]#[O+].[C-]#[O+].[C-]#[O+].[C-]#[O+].[C-]#[O+].[Cl][Ru][Cl].[Cl][Ru][Cl] [CORM-2, tricarbonyldichlororuthenium(II) dimer]
- solubility [3]: soluble only in organic solvents

— US20080121012A1, “Electrode Calibration” (priority 2004, published 2008)
